PubChem BioAssay (NCI)
“And” between values parts separate entries of the source, which are not always exact repeats. Identical values can stand only once.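 The compound was tested at five concentrations on cells cultured in 96-well plates, with a 48-hour exposure period. At the GI50, growth is halved. TGI marks complete inhibition of growth.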

Each molecule was assayed on MDA-MB-468 breast (assay: NCI anticancer screen, dose series, 48 h).

| Compound | GI50 | TGI [µM] |
| --- | --- | --- |
| CC(=O)n1c(-c2ccc(Cl)cc2)nc2c(c1=O)C(c1ccc(Cl)cc1)c1sc3c(Cl)cccc3c1O2 (configuration not stated) | 0.225 µM | 0.56 |
| C=CCOc1c(Br)cc(Br)cc1Br | 26.4 µM | > 100 |
| CNC(=O)c1cn(C[C@H](F)CCc2ccc(NC(=O)Cc3cc(OC4CC(F)(F)C4)cc(C)n3)nn2)nn1 | > 100 µM | > 100 |
| N#Cc1c(-c2ccccc2)nc2c(c(-c3ccccc3)nn2-c2ccccc2)c1-c1ccc(O)cc1 | 2.41 µM | 5.57 |
| C=C(C)[C@@H]1CC[C@@]2(C(=O)O)CC[C@]3(C)C(CCC4[C@@]5(C)CCC(OS(=O)(=O)c6ccccc6)C(C)(C)C5CC[C@]43C)C12 (some centres not stated) | 2.76 µM | 22.6 |
| Oc1ccc(Cc2ccccc2)c2cccnc12 | 1.92 µM | 5.51 |
| O=C(Nc1cc(-c2ccccc2)[nH]n1)c1ccc(Cl)cc1 | > 100 µM | > 100 |
| COc1cc(-c2cn(C)c(=O)c(C)c2C)cc(OC)c1CN1CC[C@H](N2CCN(c3ccc(N[C@H]4CCC(=O)NC4=O)cc3F)CC2)C(F)(F)C1 | 7.26 µM | 22.3 |
| NCCN1CCN(c2nccc(-c3ccc4ccccc4c3)n2)CC1 | 1.77 µM | 3.42 |
| Nc1nc(Nc2ccc(OCc3cccc(F)c3)cc2)c2c(n1)[nH]c1ccc(O)cc12 | 1.98 µM | 5.36 |
| CCCSc1cc(Cl)nc(N)n1 | 85.8 µM | > 100 |
| CC(=O)Nc1cc(F)cc(-c2ccc3[nH]cc(-c4ccccc4)c3n2)c1 | 2.09 µM | 6.4 |
| O=P(O)(O)C(O)(Cn1ccnc1)P(=O)(O)O | > 87.3 µM | > 100 |
| CN(C)CCCNc1c2ccc(Cl)cc2nc2c1oc1ccccc12 | 3.32 µM | 14 |
| C=CC(=O)N1CCN(c2ncnc3c(F)c(-c4c(O)cccc4F)c(Cl)cc23)CC1 | 10.2 µM | 31.1 |
| Cc1noc(C)c1-c1ccc2[nH]c(=O)n3c2c1OC[C@@H]3c1ccccn1 | 0.719 µM | > 91.3 |
| CC1=C(C)C(=O)O[C@@H]([C@](C)(O)[C@]2(O)CC[C@@]3(O)[C@@H]4C[C@H]5O[C@]56CC=CC(=O)[C@]6(C)[C@H]4CC[C@]23C)C1 | 0.119 µM | 0.725 |
| CCCCCCNc1nc(NCCCCCC)c2[nH]c(NCCCCCC)nc2n1 | 1.17 µM | 5.46 |
| CC(C)(C)OC(=O)c1ccc(NCc2cc(O)ccc2O)cc1 | 1.51 µM | 3.45 |
| CCN(Cc1c(F)cccc1F)c1ccc(CO)c(Cl)c1 | 0.0148 µM | 0.033 |
| CN1CCN(Cc2ccc(NC(=O)c3ccc(C(C)(C)C)c(C#Cc4cnc5cccnn45)c3)cc2C(F)(F)F)CC1 | 1.98 µM | 3.77 |
| CNC(=O)c1ccc(-c2cnc3ncc(Cc4ccc5ncccc5c4)n3n2)cc1F | 92.3 µM | > 100 |
| CCNCCOc1ccc(/C(=C(/CC)c2ccc(Cl)cc2)c2ccc(OCCCN(C)C)cc2)cc1 | 1.52 µM | 5.35 |
| CCCCCC(=O)Oc1ccc(/C(=C(\C)c2ccc(OC)cc2)c2ccc(OCCN3CCCCC3)cc2)cc1 | 4.02 µM | 15.8 |
| CNc1nc(NC2CCCC2)nc(Sc2ccc(OC)cc2)n1 | > 10 µM | > 10 |

| Compound | GI50 | TGI [µM] |
| --- | --- | --- |
| O=C(N/N=C/c1ccc(Cl)cc1Cl)c1ccccc1Nc1cccc(C(F)(F)F)c1 | 2.88 µM | 12 |
| CCn1c(-c2nonc2N)nc2ccc(F)cc21 | > 25 µM | > 25 |
| CCCNCc1cc(C)cc2c1nc(N1CCNCC1)n2Cc1cc(C)c(F)c(C)c1 | 1.88 µM | 3.71 |
| CS(=O)(=O)Nc1ccc(-c2ccc3c(NC(=O)C4CC4)n[nH]c3c2)cc1 | 7.2 µM | > 23.7 |
| Cc1sc(C)c(-c2ccc(CO)o2)c1-c1ccc(CO)o1 | 0.0178 µM | 0.0501 |
| Cc1ccc(-c2nc(C(Cl)Cl)n3nc(-c4ccccc4)cc3n2)cc1 | 0.239 µM | 0.612 |
| CCN(CCO)CCNc1ccc(C)c2sc3cc(Cl)ccc3c(=O)c12 | 1.29 µM | 2.78 |
| CCOC(=O)[C@@H](C)C[C@H](Cc1ccccc1)NC(=O)c1csc([C@@H](C[C@H](C(C)C)N(C)C(=O)[C@@H](NC(=O)[C@H]2CCCCN2C)C(C)(C)C)OC(C)=O)n1 | < 0.00167 µM | 0.0752 |
| FC(F)(F)c1ccc2c(Nc3cccc(C4CC(c5ccccc5)=NN4c4ccc(Cl)cc4)c3)ccnc2c1 (configuration not stated) | 3.02 µM | 16.6 |
| COc1ccc(/C=N/Nc2nc3ccccc3c(=O)n2-c2ccccc2)c(OCc2ccccc2)c1 | > 100 µM | > 100 |
| COc1ccc(/C=N/NC(=O)c2[nH]c3ccc(Br)cc3c2-c2ccccc2)s1 | 0.0586 µM | 3.78 |
| C=CC(=O)Nc1cccc(Nc2nc(Nc3ccc(OCCOC)cc3)ncc2F)c1 | 0.976 µM | 3.89 |
| C=C1C(=O)O[C@H]2[C@H]1CC/C(COC(=O)c1cc3cc(OC)ccc3[nH]1)=C\CC[C@@]1(C)O[C@@H]21 | 1.13 µM | 2.85 |
| O=c1cc(-c2ccccc2F)[nH]c2cc3c(cc12)OCO3 | 6.39 µM | > 100 |
| COCC(=O)OC1CCn2c1nc1c2C(=O)C(C)=C(NC(C)=O)C1=O (configuration not stated) | 0.27 µM | 0.894 |
| O=C1c2c(c3c4ccc(Br)cc4oc3c3[nH]c4ccccc4c23)C(=O)N1O | 2.38 µM | 8.36 |
| CC(=O)O[C@H]1C(=O)[C@@]2(C)[C@H]([C@H](OC(=O)c3ccccc3)[C@]3([O-])C[C@H](OC(=O)[C@H]([O-])[C@@H](NC(=O)c4ccccc4)c4ccccc4)C(C)=C1C3(C)C)[C@]1(OC(C)=O)CO[C@@H]1C[C@@H]2[O-].[Fe+3] | 0.0351 µM and 0.0363 µM | – |
| CC(C)(C)c1nc2c(o1)C(=Nc1ccc(F)cc1)c1ccccc1C2=O | 5.84 µM | > 100 |
| COc1ccc2c(c1)C=CC(C#N)N2C(=O)c1ccccc1 (configuration not stated) | < 0.01 µM | > 100 |
| CNC(=O)c1cc(Oc2ccc(NC(=O)Nc3ccc(Cl)c(OC(F)(F)F)c3)c(F)c2)ccn1 | 1.02 µM | 4.77 |
| COc1ccc(NC2=C(Br)C(=O)C(C)=C(C)C2=O)cc1 | 1.56 µM | 3.16 |
| CN(C)c1nc(-c2cccs2)n2nc(-c3ccc(Cl)cc3)cc2n1 | 3.1 µM | > 100 |
| Cc1ncc(NC(=O)c2ccc(CN3CCN(C)CC3)c(C(F)(F)F)c2)cc1Nc1nccc(-c2cccnc2)n1 | 14.6 µM | 29.4 |
| CCCS(=O)(=O)c1nc(NC2CC2)cc(-c2ccc3c(ccn3C3CC(C)(C)NC(C)(C)C3)c2)n1 | 1.75 µM | 3.61 |
